The assay concerns the target Mitogen-activated protein kinase kinase kinase 7 (TAK1 kinase) (Homo sapiens) (UniProt O43318). Nature of the assay: Inhibition of N-terminus FLAG-tagged TAK1 expressed in baculovirus expression system using [gamma-33P]-ATP measured after 60 mins by scintillation counting.

A value given as a limit tells only on which side of the number the result lay.

Chain of Mitogen-activated protein kinase kinase kinase 7 (TAK1 kinase) (Homo sapiens) (O43318 whole entry, looked up): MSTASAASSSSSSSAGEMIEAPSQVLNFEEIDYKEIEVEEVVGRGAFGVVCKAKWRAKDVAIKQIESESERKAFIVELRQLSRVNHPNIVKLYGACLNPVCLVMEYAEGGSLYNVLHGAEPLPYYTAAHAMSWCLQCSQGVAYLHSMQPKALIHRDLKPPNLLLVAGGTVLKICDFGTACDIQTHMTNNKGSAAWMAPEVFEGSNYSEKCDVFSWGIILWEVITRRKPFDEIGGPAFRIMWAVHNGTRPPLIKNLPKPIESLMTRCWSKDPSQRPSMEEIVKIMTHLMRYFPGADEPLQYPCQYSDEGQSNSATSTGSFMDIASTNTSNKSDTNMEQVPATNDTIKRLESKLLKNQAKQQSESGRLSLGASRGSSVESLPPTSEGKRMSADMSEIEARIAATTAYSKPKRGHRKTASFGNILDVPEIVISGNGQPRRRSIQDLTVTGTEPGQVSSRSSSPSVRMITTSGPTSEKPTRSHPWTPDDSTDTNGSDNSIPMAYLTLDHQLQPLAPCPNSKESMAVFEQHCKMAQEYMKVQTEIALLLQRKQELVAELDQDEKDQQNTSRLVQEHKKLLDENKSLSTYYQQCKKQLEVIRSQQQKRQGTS

With `CC(C)(N)C(=O)NCCn1ccc2ncnc(Nc3ccc(Oc4cccc5sncc45)c(Cl)c3)c21`, the IC50 (usually the concentration needed to halve the response being measured) was more than 10 µM.

(Values after BindingDB's records for doi:10.1021/jm300185p (Takeda Pharmaceutical, 2012).)
